In US5656591A, “Antimicrobial agents and method for treating products therewith” (Morinaga Milk Industry Co., Ltd., priority 1992, dated 1997):

Tests used:
[1] = system: Staphylococcus aureus JCM2151; assay: Test for antimicrobial activity (turbidity): growth inhibiting concentration of antibiotics; type: cell-based; settings: for MIC: Staphylococcus aureus
Method: (§1) Precultures of test microorganisms to be used in the tests described hereunder were prepared in such a manner that: from the frozen preservation of dispersions of test microorganisms, a loop of the respective strains of the microorganisms were taken out and spread onto TRI PETIT CASE SOYA AGAR MEDIA (by BBL Company), and incubated at 37° C. for 16 hours; the colonies grown on the culture media were scraped by a platinum loop and cultivated in 2.1% Mueller-Hington Broth (by Difco Company) respectively for several hours at 37° C. The resultant microbial cultures at logarithmic phase in 3×10^8 /ml of microbial concentration were used as the precultures.
(§2) The test media to be used in the respective tests were prepared in such a manner that: aqueous solutions in a predetermined concentration of the lactoferrin hydrolysates or the lactoferrin-derived antimicrobial peptides of (1) and (2) in Preparation of Samples (supra), as well as the samples of antibiotics of (3) (supra) were respectively sterilized with filters (by Advantec Company); then a quantity of the resultant solutions of respective samples were selectively added to a quantity of basal medium (Mueller-Hington Broth) prepared in the eventual concentration of 2.1%, thereby combinations of the samples and their concentrations in the respective test media were adjusted as specified in the respective tests.
(§3) Antimicrobial activity was examined as follows: A quantity of the respective precultures prepared in (1) immediately above was diluted with 2.1% Mueller-Hington Broth to result in 2×10^6 /ml of microbial concentration; 100 μl aliquots of the resultant liquid were added to 100 μl aliquots of one of the test media as specified in the respective test; the resultant media were incubated at 37° C. for 16 hours; then the turbidity of the resultant culture broths were measured thereby antimicrobial activity was examined.
(§4) Components in the test and control media and eventual concentrations thereof were adjusted by properly combining 0 mg, 0.4 mg, 1.6 mg and 6.4 mg/ml of lactoferrin hydrolysate of (1) (in Preparation of Samples, supra). or 0 μg, 16 μg, 64 μg, and 256 μg/ml of lactoferrin-derived antimicrobial peptides of (2) (in Preparation of Samples, supra), and 0 μg, 0.01 μg, 0.1 μg, 1 μg, and 10 μg/ml of antibiotics of (3) (supra), then antimicrobial activity of the combined use of the components against Escherichia coli 0-111 and Staphylococcus aureus (JCM2151) as well as growth inhibiting concentrations of the antibiotics were investigated.

[2] = system: Escherichia coli 0-111; assay: as above; type: cell-based
Method: as §1, §2, §3, §4

[3] = JCM2151, antimicrobial peptide (Seq. ID No. 27) 0 μg/ml
[4] = JCM2151, antimicrobial peptide (Seq. ID No. 27) 16 μg/ml
[5] = JCM2151, antimicrobial peptide (Seq. ID No. 27) 64 μg/ml
[6] = JCM2151, antimicrobial peptide (Seq. ID No. 27) 256 μg/ml
[7] = lactoferrin hydrolysate 0 mg/ml
[8] = lactoferrin hydrolysate 0.4 mg/ml
[9] = lactoferrin hydrolysate 1.6 mg/ml
[10] = lactoferrin hydrolysate 6.4 mg/ml
[11] = Escherichia coli, 0111, antimicrobial peptide (Seq. ID No. 27) 0 μg/ml
[12] = Escherichia coli, 0111, antimicrobial peptide (Seq. ID No. 27) 16 μg/ml
[13] = Escherichia coli, 0111, antimicrobial peptide (Seq. ID No. 27) 64 μg/ml
[14] = Escherichia coli, 0111, antimicrobial peptide (Seq. ID No. 27) 256 μg/ml
[15] = antimicrobial peptide (Seq. ID No. 27) 0 μg/ml
[16] = antimicrobial peptide (Seq. ID No. 27) 16 μg/ml
[17] = antimicrobial peptide (Seq. ID No. 27) 64 μg/ml
[18] = antimicrobial peptide (Seq. ID No. 27) 256 μg/ml

Compound	MIC [1, 3]	MIC [1, 4]	MIC [1, 5]	MIC [1, 6]	Growth inhibiting Concentration of antibiotics [1, 7]	Growth inhibiting Concentration of antibiotics [1, 8]	Growth inhibiting Concentration of antibiotics [1, 9]	Growth inhibiting Concentration of antibiotics [1, 10]	MIC [2, 11]	MIC [2, 12]	MIC [2, 13]	MIC [2, 14]	Growth inhibiting Concentration of antibiotics [2, 7]	Growth inhibiting Concentration of antibiotics [2, 8]	Growth inhibiting Concentration of antibiotics [2, 9]	Growth inhibiting Concentration of antibiotics [2, 10]	Growth inhibiting Concentration of antibiotics [1, 15]	Growth inhibiting Concentration of antibiotics [1, 16]	Growth inhibiting Concentration of antibiotics [1, 17]	Growth inhibiting Concentration of antibiotics [1, 18]	also measured
O=C(N[C@H](CO)[C@H](O)c1ccc([N+](=O)[O-])cc1)C(Cl)Cl [chloramphenicol]	> 1 µg/mL	> 1 µg/mL	1 µg/mL	1 µg/mL	> 1 µg/mL	> 1 µg/mL	> 1 µg/mL	1 µg/mL	> 1 µg/mL	> 1 µg/mL	1 µg/mL	0.1 µg/mL	> 1 µg/mL	> 1 µg/mL	> 1 µg/mL	0.1 µg/mL					
polymyxin B					> 1 µg/mL	0.1 µg/mL	0.1 µg/mL	0.1 µg/mL					> 1 µg/mL	> 1 µg/mL	0.1 µg/mL	0.01 µg/mL	> 1 µg/mL	0.1 µg/mL	0.1 µg/mL	0.1 µg/mL	Growth inhibiting Concentration of antibiotics [2, 15]: > 1 µg/mL; Growth inhibiting Concentration of antibiotics [2, 16]: > 1 µg/mL; Growth inhibiting Concentration of antibiotics [2, 17]: 0.1 µg/mL; Growth inhibiting Concentration of antibiotics [2, 18]: 0.1 µg/mL
gentamicin					1 µg/mL	0.1 µg/mL	0.1 µg/mL	0.1 µg/mL					1 µg/mL	1 µg/mL	0.1 µg/mL	0.1 µg/mL	1 µg/mL	0.1 µg/mL	0.1 µg/mL	0.1 µg/mL	Growth inhibiting Concentration of antibiotics [2, 15]: 1 µg/mL; Growth inhibiting Concentration of antibiotics [2, 16]: 1 µg/mL; Growth inhibiting Concentration of antibiotics [2, 17]: 0.1 µg/mL; Growth inhibiting Concentration of antibiotics [2, 18]: 0.1 µg/mL
NC[C@H]1O[C@H](O[C@H]2[C@H](O)[C@@H](O[C@H]3O[C@H](CO)[C@@H](O)[C@H](N)[C@H]3O)[C@H](N)C[C@@H]2N)[C@H](O)[C@@H](O)[C@@H]1O [kanamycin]	> 1 µg/mL	> 1 µg/mL	1 µg/mL	0.01 µg/mL	> 1 µg/mL	> 1 µg/mL	> 1 µg/mL	0.1 µg/mL	> 1 µg/mL	> 1 µg/mL	1 µg/mL	0.01 µg/mL	> 1 µg/mL	> 1 µg/mL	1 µg/mL	0.1 µg/mL					
CC[C@H]1OC(=O)[C@H](C)[C@@H](O[C@H]2C[C@@](C)(OC)[C@@H](O)[C@H](C)O2)[C@H](C)[C@@H](O[C@@H]2O[C@H](C)C[C@H](N(C)C)[C@H]2O)[C@](C)(O)C[C@@H](C)C(=O)[C@H](C)[C@@H](O)[C@]1(C)O [erythromycin]	> 1 µg/mL	1 µg/mL	1 µg/mL	0.01 µg/mL	> 1 µg/mL	1 µg/mL	1 µg/mL	0.01 µg/mL	> 1 µg/mL	1 µg/mL	1 µg/mL	0.01 µg/mL	> 1 µg/mL	1 µg/mL	1 µg/mL	0.1 µg/mL					
COc1cccc(OC)c1C(=O)N[C@@H]1C(=O)N2[C@@H]1SC(C)(C)[C@@H]2C(=O)O [staphcillin]	> 1 µg/mL	> 1 µg/mL	1 µg/mL	0.01 µg/mL	> 1 µg/mL	> 1 µg/mL	> 1 µg/mL	0.1 µg/mL	> 1 µg/mL	> 1 µg/mL	1 µg/mL	0.01 µg/mL	> 1 µg/mL	> 1 µg/mL	> 1 µg/mL	0.1 µg/mL					
CC1(C)S[C@@H]2[C@H](NC(=O)[C@H](N)c3ccccc3)C(=O)N2[C@H]1C(=O)O [ampicillin]	> 1 µg/mL	1 µg/mL	1 µg/mL	0.1 µg/mL	> 1 µg/mL	1 µg/mL	1 µg/mL	0.1 µg/mL	> 1 µg/mL	1 µg/mL	1 µg/mL	0.1 µg/mL	> 1 µg/mL	1 µg/mL	1 µg/mL	0.01 µg/mL					
CN(C)[C@@H]1C(=O)C(C(N)=O)=C(O)[C@@]2(O)C(=O)C3=C(O)c4c(O)cccc4C(C)(O)[C@H]3C[C@@H]12 (stereo partly drawn) [hostacyclin]					1 µg/mL	1 µg/mL	1 µg/mL	0.1 µg/mL					1 µg/mL	1 µg/mL	1 µg/mL	0.1 µg/mL	1 µg/mL	1 µg/mL	1 µg/mL	0.1 µg/mL	Growth inhibiting Concentration of antibiotics [2, 15]: 1 µg/mL; Growth inhibiting Concentration of antibiotics [2, 16]: 1 µg/mL; Growth inhibiting Concentration of antibiotics [2, 17]: 1 µg/mL; Growth inhibiting Concentration of antibiotics [2, 18]: 0.1 µg/mL
CC(=O)OCC1=C(C(=O)O)N2C(=O)[C@@H](NC(=O)Cc3cccs3)[C@H]2SC1 [cephalothin]	> 1 µg/mL	1 µg/mL	1 µg/mL	0.01 µg/mL	> 1 µg/mL	1 µg/mL	1 µg/mL	0.01 µg/mL	> 1 µg/mL	> 1 µg/mL	1 µg/mL	0.01 µg/mL	> 1 µg/mL	> 1 µg/mL	1 µg/mL	0.01 µg/mL					
